Consider 16 molecules from patent publication US9669049B2, “Compositions comprising gamma retrovirus vectors and methods of treating proliferative disorders” (Tocagen Inc., priority 2010, dated 2017).

In data set [1] the test system is recurrent anaplastic oligodendroglioma. The data set is described as follows: Patient dog with spontaneous recurrent malignant glioma. The data set is classed as in vivo. The note with it: second cycle, 160 mg/kg/day, after fifth day. How it is done: The tumor measured approximately 13 cm^3, and caused major lateral ventricle compression and significant midline shift. […] ProHance® (gadoteridol) was added to Toca 511 prior to injection to allow visualization of delivery by MRI. The volume of distribution of the vector was estimated to be approximately 10-12% of the tumor volume.
The dog was treated with 5-FC at a divided dose of 130 mg/kg/day, by mouth, three times daily with food for 5 days. The dose was increased to 160 mg/kg/day for 2 more days (7 days of 5-FC total). […] After 21 days of viral spread, a second cycle of 5-FC was initiated at the higher dose of 160 mg/kg/day (divided, three times a day with food).
The subject became more alert, active and remained clinically stable 13 weeks after injection of vector. The subject succumbed to a gastro-intestinal bleed at 15+ weeks, related to the extended administration of high dose steroids, and unrelated to the tumor. The estimated lifespan of the dog was no more than 3-4 weeks at the time of initial injection of the vector.

The subject of data set [2] is cultured human glioma cells. The data set is classed as cell-based. Details: key: +: positive or negative effects have been observed.
Another data set has as its system Tu2449 cells. Put plainly: Bortezomib plus vector, intracranial Tu2449 glioma survival. The data set is classed as in vivo, mouse. Conditions: Bortezomib 1 mg/kg IP every 7 days; vector 6.3E4 TU/g IC; 5-FC cycles. How it is done: On Day 0 and every 7 days, Groups 3 and 4 received Bortezomib treatment (1 mg/kg; 25 μg/mouse) IP. […] Survival was assessed for at least 4 cycles.

Data set [3] has as its system cultured human plasmacytoid dendritic cells. The data set is described as follows: IFN production after in vitro stimulation of cultured human plasmacytoid dendritic cells. The data set is classed as cell-based. Details: key: +: positive or negative effects have been observed; −: positive or negative effects have been observed.
Data set [4] relates to cultured human glioma cells. Put plainly: Initial viral spread in cultured human glioma cells by flow cytometric analysis. The data set is classed as cell-based. On the technique in general: A flow cytometer gives signals particle by particle.
For another data set, the system named is TLR3, 7, 8, 9. The note with it: cited from earlier work.
A further data set has as its system U-87MG. Conditions: 0.1 and 1 μM, 28 days.
In a further data set the test system is T98G. The note with it: 0.1 and 1 μM, 28 days.
Data set [5] relates to intracranial tumor models. The data set is described as follows: In vivo screening, IC tumor model. Conditions: mouse.
Data set [6] in a line: Pilot study of white blood cell count suppression. The data set is classed as in vivo. The note with it: 400 mg/kg SC. The procedure: (§1) Dosing Procedures. For Group 3 only, methylprednisolone acetate (Depo-Medrol), 400 mg/kg, was administered subcutaneously (SC) at day −3.
The nature of data set [7]: Vector copies in tissues after intracranial injection with or without steroid. The data set is classed as in vivo, mouse. The note with it: right cerebrum, day 10; p<0.0001. The procedure: as §1
Toca 511 or vehicle was administered by stereotaxic injection into the right frontal lobe. After anesthetizing the mice and preparing the skull, a small burr hole was drilled through the bone at coordinates AP=+0.5 mm and ML=−2.5 mm from bregma. […] After a hold of 5 minutes, the syringe was withdrawn, the hole sealed with bone wax, the skin closed, and the animal recovered from surgery. To minimize discomfort, ketoprofen was administered SC.
Tissue collection. On day 10, all animals were euthanized and selected tissues and fluids collected using disposable equipment to minimize possible cross-contamination of vector negative by vector positive tissues. […] Assays were performed in triplicate.

In another data set the test system is parental CT26 cells. Put plainly: Viral replication kinetics in CT26 cells with exogenous IFNα. The note with it: 1,340 units/mL daily; MOI 0.1 and 1.
The next data set deals with parental Tu2449 cells. Put plainly: Viral replication kinetics in Tu2449 cells with exogenous IFNβ. The note with it: 500 units/mL daily; MOI 0.1 and 1.

Where two headings read alike, the source gives them in different places.

For `Nc1nc(=O)[nH]cc1F` [5-FC, 5-fluorocytosine], in [1], the “adverse event stopping the drug” value is “development of rash”.

For the molecule `O=C(NCCCNc1nc(Nc2cccc(NC(=O)N3CCCC3)c2)ncc1I)c1cccs1` [BX795], in the data set with RRV, the “activity or benefit observed in the screening experiments” value (shortened to “activity or benefit observed”) was “activity was observed”. Moreover, the Efficacy entry in [2] is recorded as “+”.

As to `CC(C)C[C@H](NC(=O)[C@H](Cc1ccccc1)NC(=O)c1cnccn1)B(O)O` [Bortezomib], in the data set on Tu2449 cells, the “survival of Bortezomib and vector compared to vector, vehicle, or Bortezomib alone” value is “statistically significant survival advantage”. The “activity or benefit observed” value with RRV was “activity was observed”. Further, in data set [3], the Efficacy entry is “+”.

As for `C#Cc1cccc(Nc2ncnc3cc(OC)c(OCCCCCCC(=O)NO)cc23)c1` [CUDU-101], the Efficacy result in data set [4] is on record as “−”.

With `CCN(CC)CCCC(C)Nc1ccnc2cc(Cl)ccc12` (centres unmarked) [Chloroquine], the IC50 with TLR3, 7, 8, 9 (read-out: Dosage/IC50, head does not say whether dosage or IC50) was 20 µM. Moreover, in the data set on TLR3, 7, 8, 9 (same value in mass units), the Dosage/IC50 is 10 µg/mL.

With `N#CCNC(=O)c1ccc(-c2ccnc(Nc3ccc(N4CCOCC4)cc3)n2)cc1` [Cyt387], the Efficacy entry in [4] is “−”.

For `C[C@@H]1C[C@H]2[C@@H]3CCC4=CC(=O)C=C[C@]4(C)[C@@]3(F)[C@@H](O)C[C@]2(C)[C@@]1(O)C(=O)CO` [Dexamethasone], the Efficacy result in data set [4] was “+”. The cell toxicity entry with U-87MG and in the data set on T98G was “No cell toxicity was observed” throughout.

On to `Cc1cc(Cl)ccc1OCCCC(=O)NO` [Droxinostat], for which the Efficacy entry in data set [4] is listed as “−”.

As to `CCN(CC)Cc1ccc2cc(COC(=O)Nc3ccc(C(=O)NO)cc3)ccc2c1` [ITF2357], the Efficacy entry in data set [4] is reported as “−”.

On to `O=C1Nc2ccc3ncsc3c2/C1=C/c1cnc[nH]1` [Imidazolo-oxindole], for which the Efficacy result in data set [4] was “−”.

As for `CCc1c2c(nc3ccc(OC(=O)N4CCC(N5CCCCC5)CC4)cc13)-c1cc3c(c(=O)n1C2)COC(=O)[C@]3(O)CC` [Irinotecan], the “Outcome summary IC tumor model” value in data set [5] was “No survival improvement”.

`Nc1ccccc1NC(=O)c1ccc(CNC(=O)OCc2cccnc2)cc1` [MS-275]: the Efficacy result in data set [4] is recorded as “−”; in data set [2], “+”. Moreover, the “activity or benefit observed” value in the data set with RRV is listed as “activity was observed”.

Take `CC#C[C@]1(O)CC[C@H]2[C@@H]3CCC4=CC(=O)CCC4=C3[C@@H](c3ccc(N(C)C)cc3)C[C@@]21C` [Mifepristone]: the Efficacy result in data set [4] is “+”. The “activity or benefit observed” value in the data set on RRV is reported as “activity was observed”.

As for `CC(=O)OCC(=O)[C@@]1(O)CC[C@H]2[C@@H]3C[C@H](C)C4=CC(=O)C=C[C@]4(C)[C@H]3[C@@H](O)C[C@@]21C` [methylprednisolone acetate], the “duration of white blood cell count suppression below normal range” value in [6] is given as “at least 10 days”. In data set [7], the “increase of vector copies with steroids over no steroid” value was “more than 40 fold”.

With IFNα, the “effect on viral spread (% GFP positive cells)” value with parental CT26 cells is “attenuates viral spread”.

B1: IFNβ: Recombinant mouse IFNβ (PBL Interferon Source) (protein, UniProt P01575 22-182, looked up)
Interferon beta: INYKQLQLQERTNIRKCQELLEQLNGKINLTYRADFKIPMEMTEKMQKSYTAFAIQEMLQNVFLVFRNNFSSTGWNETIVVRLLDELHQQTVFLKTVLEEKQEERLTWEMSSTALHLKSYYWRVQRYLKLMKYNSYAWMVVRAEIFRNFLIIRRLTRNFQN
With B1, the “effect on viral spread (% GFP positive cells)” value in the data set with parental Tu2449 cells is reported as “attenuates viral spread”.
